“Also recorded” adds a separate entry of the source.

For assay [1], the system named is chicken dorsal root ganglion neurons. The assay can be described thus: neurite outgrowth in primary chicken dorsal root ganglion neurons. In kind it is cell-based. The note with it: E8 and E15 DRG neurons, 12 to 24 hours; compound 1a 10 μM, NGF 20 ng/ml; GAP-43 staining. On the procedure: Dorsal root ganglion neurons comprise of an axon with two branches and are a good model for neuronal differentiation. Embryonic day 8 and 15 chicken dorsal root ganglions were examined for immunochemical staining with GAP43 after incubation with NGF 20 ng/ml and compound 1a (ENDF1) 10 μM to analyze whether compound 1a alone or in combination with the nerve growth factor enhances neurite outgrowth and branching.
Embryonic day (E) 8 and E15 chicken Dorsal Root Ganglions (DRGs) were prepared as described in: Aigner, 1993; Aigner, 1995. Briefly, foetuses were taken out of the egg, decapitated and the DRGs were targeted from the ventral side. The 10 lumbar region DRGs per foetus were dissected, and a total of 100 DRGs were collected in 10 ml DPBS in a 15 ml Falcon tube. DRGs were centrifuged 120×g for 3 min and then enzymatically treated with 1 ml trypsin 0.5 mg/ml+EDTA 0.22 mg/ml (PAA, Pasching, Austria) for 15 min. Then, 9 ml of DMEM 10% FCS were added to inactivate the trypsin and DRGs were centrifuged 120×g for 5 min. DRGs were resuspended and washed with 5 ml of DMEM 10% FCS, pipetted up and down to dissociate them, centrifuged, resuspended in 5 ml of DMEM 10% FCS and transferred into a 60 mm diameter cell culture dish. […]

For assay [2], the system named is PC12 cells. As to the kind of experiment: PC12 cobalt-chloride stress test, Caspase 3/7 activation. The assay is classed as cell-based, rat. The note with it: CoCl2 300 μM, 24 hours; compounds 10 μM, NGF 50 ng/ml; FIG. 7A. On the procedure:
(§1) For the neuroprotection assay PC12 cells were stressed with cobalt chloride 300 μM for 24 hours and the activity of Caspase 3/7 and LDH release were measured. NGF 50 ng/ml was used as a positive control for Caspase 3/7 activity and NGF 100 ng/ml was used as a positive control for LDH release.
(§2) For the PC12-CoCl2-Assay PC12 cells were used (ATCC: CRL-1721 ™). These cells were growing in RPMI supplemented with 10% Horse Serum (heat inactivated) (Sigma Aldrich, Taufkirchen, Germany), 5% Fetal Bovine Serum (Lonza, Wuppertal, Germany), 2.5% Penicillin/Streptomycin and Glutamine (PAA, Pasching, Austria) as adherent cultures when the plates are coated with Poly-L-ornithine ([…] in water) for at least one hour at 37° C. For passaging PC12-cells were resuspended with Accutase (PAA, Pasching, Austria) for 10 minutes at 37° C. once a week.
(§3) For all experiments cells were plated (quadruplicates) on Poly-L-ornithine-coated 96-well plates at a density of 10^4 cells per well. For Caspase 3/7-measurement cells were seeded in a white 96-well-plate to detect luminescence. As positive-control for neuroprotection Nerve Growth Factor (NGF) (50 ng/ml and 100 ng/ml) was used. To induce hypoxia CoCl2 (300 μM) was added to the cells after 20-24 hours. The control-treatment was compound 1a (ENDF1), compound 1b (ENDF3), compound 3a (ENDF2), ENDF4 or Osajin in the concentrations 1 μM and 10 μM in proliferation-media without CoCl2.
For Caspase 3/7-activation Caspase 3/7 substrate was added to the cells in an equal amount 22 hours after stimulation. Plates are incubated for 2 hours at room temperature in the dark, luminescence was measured 24 hours after stimulation and the blank-values are subtracted.

Assay [3] deals with PC12 cells. The assay can be described thus: PC12 cobalt-chloride stress test, LDH release. The assay is classed as cell-based, rat. The note with it: CoCl2 300 μM, 24 hours; compounds 10 μM, NGF 100 ng/ml; FIG. 7B. On the procedure: as §1, §2, §3
For LDH-release cells were centrifuged at 1050 rpm for 5 minutes. After 24 hours of stimulation, the supernatant was mixed in an equal amount with LDH-substrate and incubated in the dark for 30 minutes. Afterwards stop solution was added and absorbance was measured at 490 nm, the blank-values are subtracted.

Take “NGF: Nerve Growth Factor, positive control for neuroprotection and neurite outgrowth”: the neurite extension result in assay [1] is reported as “strongly promote neurite extension; also recorded: potent enhancer of neuronal differentiation”. Besides, the “protection from CoCl2 induced Caspase 3/7 activity” value in the assay with PC12 cells [2] is “partially protected; also recorded: inhibits CoCl2 induced Caspase 3/7 activity”. Besides, in the assay with PC12 cells [3], the “protection from CoCl2 induced LDH release (cell death)” value is listed as “partially protected; also recorded: slightly decrease the LDH release”.

Values taken from patent publication US9956199B2, “Chromane-like cyclic prenylflavonoids for the medical intervention in neurological disorders” (priority 2011, dated 2018).
